Results published in patent US12240844B2 (Voronoi, Inc., priority 2019, dated 2025).

Columns and labels:
[1] = target: T1, human GST-DYRK1A (full length) (Homo sapiens, UniProt Q13627); assay: GST-DYRK1A enzyme inhibition, ADP-Glo kinase assay; type: biochemical; details: read-out: DYRK1 IC50
T1 construct: purified human GST-DYRK1A (full length, Thermo scientifics) enzyme; GST; purchased Thermo scientifics
Procedure: (§1) In order to evaluate the inhibitory activity of the compounds according to the present invention on LRRK2, LRRK2 (G2019S), DYRK1, CLK1 and TTK kinases, the following experiment was performed.
(§2) Example compounds were reacted with the purified human GST-DYRK1A (full length, Thermo scientifics) enzyme to evaluate the enzyme inhibitory ability as follows. As the reaction buffer, the composition of 40 mM Tris-HCl pH 7.4, 20 mM MgCl2, 0.5 mg/mL BSA, and 50 uM DTT was used, and the reaction of all test materials was performed on the reaction buffer. During the test, the human GST-DYRK1A (full length, 10 ng) enzyme, the purified ATP (10 uM), and a specific substrate solution were reacted at 25° C. for 1 hour, and then the enzyme activity was identified using the in vitro ADP-Glo™ kinase assay (promega). Luminescence was measured by reacting the enzyme activity reaction solution, an ADP-Glo reaction solution and the enzyme potency detection solution in a ratio of 2:2:1. The degree of inhibition of enzyme activity according to the treatment concentrations of the respective compounds was calculated based on the fluorescence of the enzyme activity of a solvent control group that was not treated with the compound, where the concentration of each compound to inhibit enzyme activity inhibition by 50% was determined as an IC50 (nM) value. The IC50 of each compound was determined in triplicate data sets and obtained using Prism (version 7.01, GraphPad) software.
(§3) In the table below, the following designations were used for the evaluation of enzyme inhibitory ability.

human GST-CLK1 (129-end) = target: T2, human GST-CLK1 (129-end) (Homo sapiens, UniProt P49759); assay: GST-CLK1 enzyme inhibition, ADP-Glo kinase assay; type: biochemical; details: ATP 10 uM
T2 construct: purified human GST-CLK1 (129-end, Signalchem) enzyme; GST; purchased Signalchem
T2 sequence (P49759 129-484 limits assumed): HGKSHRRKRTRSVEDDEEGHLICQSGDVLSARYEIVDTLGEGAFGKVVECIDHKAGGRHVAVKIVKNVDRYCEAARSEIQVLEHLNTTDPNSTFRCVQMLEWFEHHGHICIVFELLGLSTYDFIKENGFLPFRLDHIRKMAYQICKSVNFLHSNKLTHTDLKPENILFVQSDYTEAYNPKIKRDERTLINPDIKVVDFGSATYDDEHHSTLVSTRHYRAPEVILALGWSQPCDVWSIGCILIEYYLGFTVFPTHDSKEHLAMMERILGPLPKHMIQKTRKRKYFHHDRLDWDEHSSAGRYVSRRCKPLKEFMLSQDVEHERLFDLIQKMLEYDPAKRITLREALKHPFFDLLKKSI
Procedure: as §1
as §2, with “GST-CLK1 (129-end, Signalchem)” for “GST-DYRK1A (full length, Thermo scientifics)”, “GST-CLK1 (129-end, 3” for “GST-DYRK1A (full length, 10”
as §3

Row | Compound | IC50 [1] [nM] | IC50 (human GST-CLK1 (129-end)) [nM]
1 | CCNc1cc(Nc2ccc(C(=O)N3CCOCC3)c3c2OCO3)nc2[nH]cc(C#N)c12 [Example 33] | 301 to 1000 | 101 to 300
2 | CCNc1cc(Nc2ccc(C(=O)N3CCC(N4CCOCC4)CC3)c3c2OCO3)nc2[nH]cc(C#N)c12 [Example 34, 4-(ethylamino)-6-((7-(4-morpholinopiperidine-1-carbonyl)benzo[d] [1,3]dioxol-4-yl)amino)-1H-pyrrolo[2,3-b]pyridine-3-carbonitrile] | < 100 | < 100
3 | CCNc1cc(Nc2ccc(C(=O)N3CCN(C4COC4)CC3)c3c2OCCO3)nc2[nH]cc(C#N)c12 [Example 35, 4-(ethylamino)-6-((8-(4-(oxetan-3-yl)piperazine-1-carbonyl)-2,3-dihydrobenzo[b] [1,4]dioxin-5-yl)amino)-1H-pyrrolo[2,3-b]pyridine-3-carbonitrile] | 101 to 300 | 101 to 300
4 | N#Cc1c[nH]c2nc(Nc3ccc(C(=O)N4CCOCC4)c4c3OCCO4)cc(NC3CCC3)c12 [Example 36, 4-(cyclobutylamino)-6-((8-(morpholine-4-carbonyl)-2,3-dihydrobenzo[b] [1,4]dioxin-5-yl)amino)-1H-pyrrolo[2,3-b]pyridine-3-carbonitrile] | 301 to 1000 | 301 to 1000
5 | O=C(c1ccc(Nc2cc(NC3CCCCC3)c3c(Cl)c[nH]c3n2)c2c1OCCO2)N1CCOCC1 [Example 61, (8-((3-chloro-4-(cyclohexylamino)-1H-pyrrolo[2,3-b]pyridin-6-yl)amino)-2,3-dihydrobenzo[b] [1,4]dioxin-5-yl)(morpholino) methanone] | 301 to 1000 | 301 to 1000
6 | COCCNc1cc(Nc2ccc(S(=O)(=O)N3CCOCC3)cc2OC)nc2[nH]cc(Cl)c12 [Example 71, 3-chloro-N^6-(2-methoxy-4-(morpholinosulfonyl)phenyl)-N^4-(2-methoxyethyl)-1H-pyrrolo[2,3-b]pyridine-4,6-diamine] | 301 to 1000 | 301 to 1000
7 | COc1cc(S(=O)(=O)N2CCC(N3CCOCC3)CC2)ccc1Nc1cc(NC2CCCCC2)c2c(Cl)c[nH]c2n1 [Example 77, 3-chloro-N^4-cyclohexyl-N^6-(2-methoxy-4-((morpholinopiperidin-1-yl)sulfonyl)phenyl)-1H-pyrrolo[2,3-b]pyridine-4,6-diamine] | 301 to 1000 | 301 to 1000
8 | COCCNc1cc(Nc2ccc(S(=O)(=O)N3CCC(N4CCOCC4)CC3)cc2OC)nc2[nH]cc(Cl)c12 [Example 78, 3-chloro-N^6-(2-methoxy-4-((morpholinopiperidin-1-yl)sulfonyl)phenyl)-N^4-(2-methoxyethyl)-1H-pyrrolo[2,3-b]pyridine-4,6-diamine] | 301 to 1000 | 301 to 1000
9 | COc1cc(S(=O)(=O)N2CCC(N3CCOCC3)CC2)ccc1Nc1cc(NCCS(C)(=O)=O)c2c(Cl)c[nH]c2n1 [Example 79, 3-chloro-N^6-(2-methoxy-4-((morpholinopiperidin-1-yl)sulfonyl)phenyl)-N^4-(2-(methylsulfonyl)ethyl)-1H-pyrrolo[2,3-b]pyridine-4,6-diamine] | < 100 | < 100
10 | COc1cc(S(C)(=O)=O)ccc1Nc1cc(NC2CCCCC2)c2c(Cl)c[nH]c2n1 [Example 86, 3-chloro-N^4-cyclohexyl-N^6-(2-methoxy-4-(methylsulfonyl)phenyl)-1H-pyrrolo[2,3-b]pyridine-4,6-diamine] | 301 to 1000 | 301 to 1000
11 | COCCNc1cc(Nc2ccc(S(C)(=O)=O)cc2OC)nc2[nH]cc(Cl)c12 [Example 87, 3-chloro-N^6-(2-methoxy-4-(methylsulfonyl)phenyl)-N^4-(2-methoxyethyl)-1H-pyrrolo[2,3-b]pyridine-4,6-diamine] | 301 to 1000 | 301 to 1000
12 | CCOCCNc1cc(Nc2ccc(C(=O)N3CCOCC3)c3c2OCCO3)nc2[nH]cc(C(F)(F)F)c12 [Example 166, (8-((4-((2-ethoxyethyl)amino)-3-(trifluoromethyl)-1H-pyrrolo[2,3-b]pyridin-6-yl)amino)-2,3-dihydrobenzo[b] [1,4]dioxin-5-yl)(morpholino) methanone] | 101 to 300 | 301 to 1000
13 | CCOCCNc1cc(Nc2ccc(C(=O)N3CCC(N4CCOCC4)CC3)c3c2OCCO3)nc2[nH]cc(C(F)(F)F)c12 [Example 167, (8-((4-((2-ethoxyethyl)amino)-3-(trifluoromethyl)-1H-pyrrolo[2,3-b]pyridin-6-yl)amino)-2,3-dihydrobenzo[b] [1,4]dioxin-5-yl)(4-morpholinopiperidin-1-yl)methanone] | < 100 | < 100
14 | CC(C)Nc1cc(Nc2ccc(C(=O)N3CCOCC3)c3c2OCCO3)nc2[nH]cc(C(F)(F)F)c12 [Example 168, (8-((4-(isopropylamino)-3-(trifluoromethyl)-1H-pyrrolo[2,3-b]pyridin-6-yl)amino)-2,3-dihydrobenzo [b] [1,4]dioxin-5-yl)(morpholino) methanone] | 301 to 1000 | < 100
15 | CCCCNc1cc(Nc2ccc(C(=O)N3CCOCC3)c3c2OCCO3)nc2[nH]cc(C(F)(F)F)c12 [Example 169, (8-((4-(butylamino)-3-(trifluoromethyl)-1H-pyrrolo[2,3-b]pyridin-6-yl)amino)-2,3-dihydrobenzo [b] [1,4]dioxin-5-yl)(morpholino) methanone] | 301 to 1000 | 301 to 1000
16 | CCCCNc1cc(Nc2ccc(C(=O)N3CCC(N4CCOCC4)CC3)c3c2OCCO3)nc2[nH]cc(C(F)(F)F)c12 [Example 170, (8-((4-(butylamino)-3-(trifluoromethyl)-1H-pyrrolo[2,3-b]pyridin-6-yl)amino)-2,3-dihydrobenzo[b] [1,4]dioxin-5-yl)(4-morpholinopiperidin-1-yl)methanone] | 301 to 1000 | < 100
17 | O=C(c1ccc(Nc2cc(NC3CCC3)c3c(C(F)(F)F)c[nH]c3n2)c2c1OCCO2)N1CCOCC1 [Example 175, (8-((4-(cyclobutylamino)-3-(trifluoromethyl)-1H-pyrrolo[2,3-b]pyridin-6-yl)amino)-2,3-dihydrobenzo[b] [1,4]dioxin-5-yl)(morpholino) methanone 2,2,2-trifluoroacetate] | 301 to 1000 | 101 to 300
18 | O=C(c1ccc(Nc2cc(NC3CCC3)c3c(C(F)(F)F)c[nH]c3n2)c2c1OCCO2)N1CCC(N2CCOCC2)CC1 [Example 176, (8-((4-(cyclobutylamino)-3-(trifluoromethyl)-1H-pyrrolo[2,3-b]pyridin-6-yl)amino)-2,3-dihydrobenzo[b] [1,4]dioxin-5-yl)(4-morpholinopiperidin-1-yl)methanone] | < 100 | < 100
19 | COc1cc(P(C)(C)=O)ccc1Nc1cc(C2CC2)c2c(C#N)c[nH]c2n1 [Example 230, 4-cyclopropyl-6-((4-(dimethylphosphoryl)-2-methoxyphenyl)amino)-1H-pyrrolo[2,3-b]pyridine-3-carbonitrile] | 301 to 1000 | 301 to 1000
